From patent publication EP0898962A1, “Transdermal patches and methods for inactivating skin proteases” (Becton, Dickinson and Company, priority 1997, dated 1999)

Experiment: Incubation of peptide drugs on human skin
Assay type: in vitro ADME
Description: Effects of proteases on in vivo or in vitro transdermal delivery has been reported for vasopressin and vasopressin analogues (Morimoto et al., Int. Journal Pharmaceutics 81: 119-125, 1992), des-enkephalon-γ-endorphin (Bodde et al., Biochem. Soc. Trans. 17: 943-945, 1989), leucine enkephalin (Choi at al., 1990), and salmon calcitonin (SCT) (Morimoto et al., J. Pharm. Pharmacol. 44; 216-218, 1992). This was concluded because addition of protease inhibitors appear to enhance delivery as determined by increased biological effect of the peptides. For example, camostat mesilate (a serine protease inhibitor) increased the hypocalcemic effect of iontophoretically-delivered SCT (Morimoto, J. Pharm. Pharmacol. 1992) and the antidiuretic effects of vasopressin delivered iontophoretically in rats (Morimoto, Int. Journal Pharmaceutics, 1992). We have observed that incubation of insulin analogues or SCT on human skin results in degradation, which supports the notion that proteolysis accounts for previously observed losses of these peptide drugs during iontophoretic delivery.

- result of incubation on human skin: degradation
Substance: salmon calcitonin [SCT]
